Experiments:
[1] = biological target: Sodium-dependent dopamine transporter (Rattus norvegicus, UniProt P23977); test: Displacement of [3H]GBR from DAT in rat brain membranes; format: cell membranes
[2] = biological target: Norepinephrine transporter (Rattus norvegicus, UniProt Q9WTR4); test: Displacement of [3H]nisoxetine from NET in rat brain membranes; format: cell membranes
[3] = biological target: Sodium-dependent serotonin transporter (Rattus norvegicus, UniProt P31652); test: Displacement of [3H]paroxetine from SERT in brain membranes; format: cell membranes, Membrane
[4] = Lipophilicity, log D at pH 7.4; format: physicochemical; conditions: buffer
[5] = tested on: Brain; test: Drug uptake in olive baboon brain at 7.89 mCi after 10 mins; format: ADME, tissue-based; conditions: papio anubis, in vivo
[6] = biological target: Sodium-dependent serotonin transporter (Rattus norvegicus) (UniProt P31652); test: Inhibition of SERT in rat brain membrane at 10 uM; format: cell membranes
Sequence of Sodium-dependent serotonin transporter (Rattus norvegicus) (P31652 whole entry): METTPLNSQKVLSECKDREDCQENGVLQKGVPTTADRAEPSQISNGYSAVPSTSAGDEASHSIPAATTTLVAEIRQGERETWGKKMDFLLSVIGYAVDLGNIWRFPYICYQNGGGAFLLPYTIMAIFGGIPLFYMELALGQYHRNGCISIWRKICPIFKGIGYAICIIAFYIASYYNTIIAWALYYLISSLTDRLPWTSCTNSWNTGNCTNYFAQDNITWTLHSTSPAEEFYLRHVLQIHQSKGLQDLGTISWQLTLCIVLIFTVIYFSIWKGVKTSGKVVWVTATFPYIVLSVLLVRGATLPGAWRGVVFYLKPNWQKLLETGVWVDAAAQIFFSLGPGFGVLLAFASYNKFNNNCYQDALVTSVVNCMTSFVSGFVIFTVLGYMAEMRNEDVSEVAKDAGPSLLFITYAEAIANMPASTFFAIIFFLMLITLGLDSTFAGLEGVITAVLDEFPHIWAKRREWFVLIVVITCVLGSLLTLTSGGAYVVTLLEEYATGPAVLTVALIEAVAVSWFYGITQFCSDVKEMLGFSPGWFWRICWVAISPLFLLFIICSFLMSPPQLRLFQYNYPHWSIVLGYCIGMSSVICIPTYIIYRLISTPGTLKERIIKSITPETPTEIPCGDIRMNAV

Sequence of Sodium-dependent serotonin transporter (P31652 whole entry): as above
Sequence of Sodium-dependent dopamine transporter (P23977 whole entry): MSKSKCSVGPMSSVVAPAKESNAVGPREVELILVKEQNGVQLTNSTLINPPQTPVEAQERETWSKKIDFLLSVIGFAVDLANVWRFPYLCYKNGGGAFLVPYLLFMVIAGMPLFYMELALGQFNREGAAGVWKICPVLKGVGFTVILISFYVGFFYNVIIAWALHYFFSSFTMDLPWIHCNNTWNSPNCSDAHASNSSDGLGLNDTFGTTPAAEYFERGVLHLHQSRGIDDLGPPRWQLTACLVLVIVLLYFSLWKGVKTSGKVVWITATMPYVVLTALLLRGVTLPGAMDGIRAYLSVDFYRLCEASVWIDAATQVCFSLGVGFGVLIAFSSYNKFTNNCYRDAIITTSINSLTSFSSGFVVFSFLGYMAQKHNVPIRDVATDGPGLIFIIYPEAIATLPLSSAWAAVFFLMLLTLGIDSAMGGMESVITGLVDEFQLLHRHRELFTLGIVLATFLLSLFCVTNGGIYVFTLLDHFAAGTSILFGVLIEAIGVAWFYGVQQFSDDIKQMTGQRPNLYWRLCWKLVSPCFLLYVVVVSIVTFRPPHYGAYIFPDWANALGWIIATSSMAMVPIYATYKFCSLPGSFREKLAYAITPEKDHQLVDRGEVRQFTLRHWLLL
Sequence of Norepinephrine transporter (Q9WTR4 whole entry): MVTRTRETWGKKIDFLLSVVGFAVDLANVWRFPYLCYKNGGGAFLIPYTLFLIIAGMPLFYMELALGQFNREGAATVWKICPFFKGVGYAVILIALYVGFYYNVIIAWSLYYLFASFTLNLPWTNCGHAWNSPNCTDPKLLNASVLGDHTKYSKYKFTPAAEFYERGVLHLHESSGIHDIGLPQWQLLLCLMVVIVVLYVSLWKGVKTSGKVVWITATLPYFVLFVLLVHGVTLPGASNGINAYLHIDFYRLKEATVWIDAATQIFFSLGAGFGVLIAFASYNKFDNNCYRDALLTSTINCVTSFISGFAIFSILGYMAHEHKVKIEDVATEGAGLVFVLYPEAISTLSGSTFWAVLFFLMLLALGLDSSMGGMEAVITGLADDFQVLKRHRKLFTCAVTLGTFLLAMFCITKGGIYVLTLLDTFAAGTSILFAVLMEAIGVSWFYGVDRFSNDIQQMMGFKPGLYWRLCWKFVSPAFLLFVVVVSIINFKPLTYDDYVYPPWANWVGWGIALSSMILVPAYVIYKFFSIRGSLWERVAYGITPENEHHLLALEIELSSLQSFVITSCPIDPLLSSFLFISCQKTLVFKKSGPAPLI

| Structure (SMILES) | Ki [1] | Ki [2] | Ki [3] | logD [4] | Drug uptake [5] | inhibition [6] |
| --- | --- | --- | --- | --- | --- | --- |
| Ic1ccccc1O[C@@H](c1ccccc1)[C@@H]1CNCCO1 | 228 nM | 0.84 nM | 40.4 nM | – | – | – |
| COc1ccccc1COC(c1cccc(I)c1)C1CNCCO1 (racemic) | 716 nM | 73.8 nM | 351 nM | – | – | – |
| Cc1ccccc1OC(c1ccc(I)s1)C1CNCCO1 (racemic) | 186 nM | 71.9 nM | – | – | – | 31% |
| COc1ccccc1OC(c1ccc(I)s1)C1CNCCO1 (racemic) | 210 nM | 79.6 nM | 141 nM | – | – | – |
| COc1ccccc1OC(c1cccc(I)c1)C1CNCCO1 (racemic) | > 10000 nM | 15.4 nM | – | – | – | 12% |
| FC(F)(F)c1ccccc1OC(c1cccc(I)c1)C1CNCCO1 (racemic) | 1870 nM | 101 nM | 486 nM | – | – | – |
| Cc1ccccc1OC(c1cccc(I)c1)C1CNCCO1 (racemic) | 740 nM | 27.6 nM | – | – | – | 24% |

Further lines, results first:

| Ki [1] | Ki [2] | Ki [3] | logD [4] | Drug uptake [5] | inhibition [6] | Structure (SMILES) |
| --- | --- | --- | --- | --- | --- | --- |
| – | – | – | 2.6 | 1 %ID | – | [125I]c1ccccc1O[C@@H](c1ccccc1)[C@@H]1CNCCO1 |
| 14.2 nM | 70.4 nM | 252 nM | – | – | – | O=[N+]([O-])c1ccccc1COC(c1cccc(I)c1)C1CNCCO1 (racemic) |
| 3140 nM | 28.5 nM | – | – | – | 44% | CCOc1ccccc1OC(c1cccc(I)c1)C1CNCCO1 (racemic) |
| 410 nM | 2.47 nM | – | – | – | 40% | Ic1ccccc1OC(c1ccccc1)C1CNCCO1 (racemic) |
